One test concerns the target T1, SHV-5 β-lactamase (Klebsiella pneumoniae, UniProt P0A3M1).
T1 construct: The β-lactamases were extracted by four cycles of freezing and thawing followed by centrifugation; endogenous in cells; host or cells: Escherichia coli cells containing SHV-5 (crude freeze-thaw extract)
Nature of the test: biochemical. The test is classed as biochemical, Escherichia coli. Particulars: crude enzyme extract, 10 min preincubation at 37° C., nitrocefin 100 μM, PBS pH 7.0; read-out: SHV-5 IC50 Range. On the procedure:
(§1) Isolation of β-lactamases. Crude β-lactamase extracts were prepared from 20 ml overnight cultures with shaking. Escherichia coli cells containing SHV-5 or CTXM-15 and Enterobacter cloacae cells containing P99 were further diluted 10-fold and grown to mid-log phase (OD at 600 nm, 0.5-0.8) in Mueller-Hinton II (MH-II) broth at 37° C. The cells were pelleted at 5000 g, washed and resuspended in 2 mL PBS pH 7.0. The β-lactamases were extracted by four cycles of freezing and thawing followed by centrifugation. β-lactamase activity in the extracts was measured with the chromogenic cephalosporin nitrocefin. The amount of protein in each β-lactamase preparation was determined by the bicinchoninic acid (BCA) assay.
(§2) β-lactamase Inhibition. To determine the level of inhibition of β-lactamase enzymes, compounds were diluted in PBS at pH 7.0 to yield concentrations between 100 and 0.005 μM in microtiter plates. An equal volume of diluted enzyme stock was added, and the plates were incubated at 37° C. for 10 min. Nitrocefin solution was then dispensed as substrate into each well at a final concentration of 100 μM, and the plates were immediately read with the kinetic program at 486 nm for 10 min on the SPECTRAMAX® Plus^384 (high-throughput microplate spectrophotometer; Molecular Devices Corp., Sunnyvale, Calif.). Maximum rates of metabolism were then compared to those in control wells (without inhibitors), and percentages of enzyme inhibition were calculated for each concentration of inhibitor. The concentration of inhibitor needed to reduce the initial rate of hydrolysis of substrate by 50% (IC50) was calculated as the residual activity of β-lactamase at 486 nm using the SoftMax Pro 5.0 software (Molecular Devices Corp.).

Test [1] deals with E. coli expressing the Class A ESBL SHV-5. It counts as cell-based. Particulars: in the presence of fixed 8 μg/mL ceftazidime; CAMHB, 16-20 hours at 37° C. The text has this:
(§3) To determine the ability of test compounds to potentiate the inhibition of the growth of bacterial strains producing beta-lactamase enzymes, classic cell based screening assays were employed. Four bacteria strains producing beta-lactamase enzymes were used: E. coli expressing the Class A Extended Spectrum Beta-Lactamase (ESBL) CTX-M-15, E. coli expressing the Class A ESBL SHV-5, E. cloacae expressing the Class C P99+, and K. pneumoniae expressing the Class A carbapenemase KPC-2. In order to evaluate the ability of test compounds to inhibit beta-lactamase activity, Applicants used a modification of the broth microdilution assay. The assay was conducted in Cation Adjusted Mueller Hinton Broth (CAMHB, BD #212322, BD Diagnostic Systems, Sparks, Md.). Bacteria strains were grown for 3-5 hours in CAMBH broth. All four strains were grown in presence of 50 μg/mL ampicillin to ensure resistance is maintained. In the meantime, test compounds were diluted in DMSO to a 0.1 mg/mL stock. The compounds were added to a microtiter plate and were diluted in 2-fold serial dilutions in CAMHB in a final concentration range of 32 μg/mL to 0.25 μg/mL. An overlay of CAMHB containing a cephalosporin was added to the compounds at a final static concentration of 8 μg/mL. […] Each of these compound plates are made in quadruplicate, one for each bacteria strain. In addition to the titration of test compounds the MICs of a panel of cephalosporins is also tested to ensure the strains are behaving consistently from test to test. Once the test compound and cephalosporin are added the plates can be inoculated. Inocula are conducted according to CLSI broth microdilution method. After inoculation the plates are incubated for 16-20 hours at 37° C. then the Minimal Inhibitory Concentration (MIC) of the test compound is determined visually.
(§4) Using the methodology described above, examples of the current invention were evaluated for their ability to inhibit the growth of β-lactamase producing bacteria in the presence of a β-lactam antibiotic.

In test [2] the test system is E. cloacae expressing the Class C P99+. It counts as cell-based. Particulars: in the presence of fixed 8 μg/mL ceftazidime; CAMHB, 16-20 hours at 37° C.
From the text: as §3, §4

For test [3], the system named is E. coli expressing the Class A ESBL CTX-M-15. The test is classed as cell-based. The note with it: in the presence of fixed 8 μg/mL cefotaxime; CAMHB, 16-20 hours at 37° C.
From the text: as §3, §4

The test system of test [4] is K. pneumoniae expressing the Class A carbapenemase KPC-2. The test is classed as cell-based. Particulars: in the presence of fixed 8 μg/mL ceftazidime; CAMHB, 16-20 hours at 37° C.
From the text: as §3, §4

Another test concerns the target T2, CTXM-15 β-lactamase (Escherichia coli, UniProt Q9EXV5).
T2 construct: The β-lactamases were extracted by four cycles of freezing and thawing followed by centrifugation; endogenous in cells; host or cells: Escherichia coli cells containing CTXM-15 (crude freeze-thaw extract)
Nature of the test: biochemical. It counts as biochemical. The note with it: crude enzyme extract, 10 min preincubation at 37° C., nitrocefin 100 μM, PBS pH 7.0; read-out: CTXM-15 IC50 Range. On the procedure:
as §1, §2

The next test concerns the target T3, P99 AmpC β-lactamase (Enterobacter cloacae, UniProt P05364).
T3 construct: The β-lactamases were extracted by four cycles of freezing and thawing followed by centrifugation; endogenous in cells; host or cells: Enterobacter cloacae cells containing P99 (crude freeze-thaw extract)
In words: biochemical. It counts as biochemical. Particulars: crude enzyme extract, 10 min preincubation at 37° C., nitrocefin 100 μM, PBS pH 7.0; read-out: P99 AmpC IC50 Range. On the procedure:
as §1, §2

T3 sequence (P05364 21-381): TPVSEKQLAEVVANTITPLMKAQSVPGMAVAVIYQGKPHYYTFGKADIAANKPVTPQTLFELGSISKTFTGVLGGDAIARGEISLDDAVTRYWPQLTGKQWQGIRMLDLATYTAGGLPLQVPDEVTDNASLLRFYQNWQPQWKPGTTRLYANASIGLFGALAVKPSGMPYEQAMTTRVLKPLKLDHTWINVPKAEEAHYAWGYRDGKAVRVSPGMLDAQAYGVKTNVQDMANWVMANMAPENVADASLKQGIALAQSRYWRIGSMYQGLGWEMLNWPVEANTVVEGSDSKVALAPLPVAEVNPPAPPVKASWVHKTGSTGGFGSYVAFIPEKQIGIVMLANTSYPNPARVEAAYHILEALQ
T1 sequence (P0A3M1 22-286): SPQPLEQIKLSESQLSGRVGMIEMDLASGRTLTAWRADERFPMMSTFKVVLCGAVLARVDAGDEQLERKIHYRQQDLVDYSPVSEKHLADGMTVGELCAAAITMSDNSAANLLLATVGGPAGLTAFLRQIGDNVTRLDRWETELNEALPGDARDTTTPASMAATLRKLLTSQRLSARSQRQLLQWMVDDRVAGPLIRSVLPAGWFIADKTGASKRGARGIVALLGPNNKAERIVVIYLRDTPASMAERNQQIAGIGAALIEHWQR
T2 sequence (Q9EXV5 29-291): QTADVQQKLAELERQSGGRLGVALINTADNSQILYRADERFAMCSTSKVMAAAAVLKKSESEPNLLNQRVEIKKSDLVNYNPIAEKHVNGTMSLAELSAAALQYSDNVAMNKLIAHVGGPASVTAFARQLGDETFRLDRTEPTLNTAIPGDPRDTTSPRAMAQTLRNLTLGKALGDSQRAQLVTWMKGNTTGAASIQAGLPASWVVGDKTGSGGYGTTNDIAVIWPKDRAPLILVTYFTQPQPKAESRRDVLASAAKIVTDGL

As for `O=C(Cc1cccs1)N[C@@H](Cc1cccc(C(=O)O)c1)B(O)O` [Example 1, (1R)-1-(2-thiophene-2-yl-acetylamino)-2-(3-carboxyphenyl)ethyl-1-boronic acid], the IC50 at SHV-5 β-lactamase was below 0.1 µM; on CTXM-15 β-lactamase, below 0.1 µM; at P99 AmpC β-lactamase, 0.1 to 1 µM. The “MIC of example compound, E. coli SHV-5 + 8 μg/mL CAZ” value (“MIC … E. coli SHV-5 + 8 μg/mL CAZ” below) in test [1] was “B (B represents an MIC between 2 and 32 μg/mL)”. In test [2], the “MIC of example compound, E. cloacae P99+ + 8 μg/mL CAZ” value (shortened to “MIC … E. cloacae P99+ + 8 μg/mL CAZ”) was “B (B represents an MIC between 2 and 32 μg/mL)”. In addition, the “MIC of example compound, E. coli CTXM-15 + 8 μg/mL TAX” value (shortened to “MIC … E. coli CTXM-15 + 8 μg/mL TAX”) in test [3] is “B (B represents an MIC between 2 and 32 μg/mL)”. In addition, the “MIC of example compound, K. pneumoniae KPC-2 + 8 μg/mL CAZ” value (shortened to “MIC … K. pneumoniae KPC-2 + 8 μg/mL CAZ”) in test [4] is “C (C represents an MIC of <2 μg/mL)”.
Consider `COc1cccc(CC(=O)N[C@@H](Cc2cccc(C(=O)O)c2)B(O)O)c1` [Example 2, (1R)-1-(3-Methoxyphenylacetylamino)-2-(3-carboxyphenyl)ethyl-1-boronic acid], for which the IC50 on SHV-5 β-lactamase is below 0.1 µM; at CTXM-15 β-lactamase it was below 0.1 µM; on P99 AmpC β-lactamase, 0.1 to 1 µM. The “MIC … E. coli SHV-5 + 8 μg/mL CAZ” value in test [1] was “B (B represents an MIC between 2 and 32 μg/mL)”. In addition, the “MIC … E. cloacae P99+ + 8 μg/mL CAZ” value in test [2] is on record as “A (A represents an MIC>32 μg/mL)”. For the same compound, the “MIC … E. coli CTXM-15 + 8 μg/mL TAX” value in test [3] is “B (B represents an MIC between 2 and 32 μg/mL)”. In addition, the “MIC … K. pneumoniae KPC-2 + 8 μg/mL CAZ” value in test [4] is “B (B represents an MIC between 2 and 32 μg/mL)”.
As to `COc1ccc(CC(=O)N[C@@H](Cc2cccc(C(=O)O)c2)B(O)O)cc1OC` [Example 11, (1R)-1-(3,4-Dimethoxyphenylacetylamino)-2-(3-carboxyphenyl)ethyl-1-boronic acid], the IC50 at SHV-5 β-lactamase was below 0.1 µM; at CTXM-15 β-lactamase, below 0.1 µM; at P99 AmpC β-lactamase, 0.1 to 1 µM. Further, the “MIC … E. coli SHV-5 + 8 μg/mL CAZ” value in test [1] was “B (B represents an MIC between 2 and 32 μg/mL)”. For the same compound, in test [2], the “MIC … E. cloacae P99+ + 8 μg/mL CAZ” value is “B (B represents an MIC between 2 and 32 μg/mL)”. Also, the “MIC … E. coli CTXM-15 + 8 μg/mL TAX” value in test [3] was “B (B represents an MIC between 2 and 32 μg/mL)”. The “MIC … K. pneumoniae KPC-2 + 8 μg/mL CAZ” value in test [4] is reported as “A (A represents an MIC>32 μg/mL)”.
For `O=C(CCC(=O)c1cccs1)N[C@@H](Cc1cccc(C(=O)O)c1)B(O)O` [Example 12, (1R)-1-(4-Oxo-4-thiophen-2-yl-butyrylamino)-2-(3-carboxyphenyl)ethyl-1-boronic acid], the IC50 on SHV-5 β-lactamase was 0.1 to 1 µM; at CTXM-15 β-lactamase, 0.1 to 1 µM; at P99 AmpC β-lactamase it was below 0.1 µM. Also, in test [1], the “MIC … E. coli SHV-5 + 8 μg/mL CAZ” value is “B (B represents an MIC between 2 and 32 μg/mL)”. In test [2], the “MIC … E. cloacae P99+ + 8 μg/mL CAZ” value was “B (B represents an MIC between 2 and 32 μg/mL)”. The “MIC … E. coli CTXM-15 + 8 μg/mL TAX” value in test [3] was “B (B represents an MIC between 2 and 32 μg/mL)”. The “MIC … K. pneumoniae KPC-2 + 8 μg/mL CAZ” value in test [4] was “B (B represents an MIC between 2 and 32 μg/mL)”.
For `CC(CO)Oc1cccc(CC(=O)N[C@@H](Cc2cccc(C(=O)O)c2)B(O)O)c1` (stereo partly drawn) [Example 32, (1R)-1-{2-[3-(2-Hydroxy-1-methyl-ethoxy)-phenyl]-acetylamino}-2-(3-carboxyphenyl)ethyl-1-boronic acid], the IC50 on SHV-5 β-lactamase was below 0.1 µM; on CTXM-15 β-lactamase, below 0.1 µM; at P99 AmpC β-lactamase, 0.1 to 1 µM.
As for `NC(=O)COc1cccc(CC(=O)N[C@@H](Cc2cccc(C(=O)O)c2)B(O)O)c1` [Example 33, (1R)-1-[2-(3-Carbamoylmethoxy-phenyl)-acetylamino}-2-(3-carboxyphenyl)ethyl-1-boronic acid], the IC50 on SHV-5 β-lactamase was below 0.1 µM; at CTXM-15 β-lactamase, below 0.1 µM; on P99 AmpC β-lactamase, 0.1 to 1 µM. For the same compound, the “MIC … E. coli SHV-5 + 8 μg/mL CAZ” value in test [1] is “B (B represents an MIC between 2 and 32 μg/mL)”. For the same compound, in test [2], the “MIC … E. cloacae P99+ + 8 μg/mL CAZ” value is “B (B represents an MIC between 2 and 32 μg/mL)”. For the same compound, the “MIC … E. coli CTXM-15 + 8 μg/mL TAX” value in test [3] is “B (B represents an MIC between 2 and 32 μg/mL)”.
In the case of `O=C(Cc1ccc(O)cc1)N[C@@H](Cc1cccc(C(=O)O)c1)B(O)O` [Example 34, (1R)-1-(4-Hydroxyphenylacetylamino)-2-(3-carboxyphenyl)ethyl-1-boronic acid], the results for the IC50 on SHV-5 β-lactamase, on CTXM-15 β-lactamase and at P99 AmpC β-lactamase were below 0.1 µM, 0.1 to 1 µM and below 0.1 µM, respectively. In test [1], the “MIC … E. coli SHV-5 + 8 μg/mL CAZ” value is “B (B represents an MIC between 2 and 32 μg/mL)”. The “MIC … E. cloacae P99+ + 8 μg/mL CAZ” value in test [2] is “B (B represents an MIC between 2 and 32 μg/mL)”. Moreover, the “MIC … E. coli CTXM-15 + 8 μg/mL TAX” value in test [3] was “B (B represents an MIC between 2 and 32 μg/mL)”.
With `O=C(CCCc1cccs1)N[C@@H](Cc1cccc(C(=O)O)c1)B(O)O` [Example 35, (1R)-1-(4-Thiophen-2-yl-butyrylamino)-2-(3-carboxyphenyl)ethyl-1-boronic acid], the concentration for half-maximal inhibition (IC50) on SHV-5 β-lactamase was 0.1 to 1 µM; at CTXM-15 β-lactamase, 0.1 to 1 µM; at P99 AmpC β-lactamase, above 1 µM.
For the compound `O=C(CCC(=O)C1CC1)N[C@@H](Cc1cccc(C(=O)O)c1)B(O)O` [Example 36, (1R)-1-(4-Cyclopropyl-4-oxo-butyrylamino)-2-(3-carboxyphenyl)ethyl-1-boronic acid], the IC50 at SHV-5 β-lactamase and on P99 AmpC β-lactamase was above 1 µM in each case. The “MIC … E. coli SHV-5 + 8 μg/mL CAZ” value in test [1] was “B (B represents an MIC between 2 and 32 μg/mL)”. Besides, the “MIC … E. cloacae P99+ + 8 μg/mL CAZ” value in test [2] is “B (B represents an MIC between 2 and 32 μg/mL)”. The “MIC … E. coli CTXM-15 + 8 μg/mL TAX” value in test [3] was “B (B represents an MIC between 2 and 32 μg/mL)”.
Regarding `O=C(CCC(=NO)c1cccs1)N[C@@H](Cc1cccc(C(=O)O)c1)B(O)O` [Example 37, (1R)-1-(4-Hydroxyimino-4-thiophen-2-yl-butyrylamino)-2-(3-carboxyphenyl)ethyl-1-boronic acid], the IC50 was above 1 µM on SHV-5 β-lactamase, 0.1 to 1 µM at CTXM-15 β-lactamase and 0.1 to 1 µM at P99 AmpC β-lactamase.
As to `COc1ccc(C(=O)CCC(=O)N[C@@H](Cc2cccc(C(=O)O)c2)B(O)O)cc1` [Example 38, (1R)-1-(4-(4-Methoxy-phenyl)-4-oxo-butyrylamino)-2-(3-carboxyphenyl)ethyl-1-boronic acid], the IC50 on SHV-5 β-lactamase, at CTXM-15 β-lactamase and at P99 AmpC β-lactamase was 0.1 to 1 µM each time.

For the origin of these results see patent publication US20100317621A1, “BETA-LACTAMASE INHIBITORS” (priority 2007, published 2010).
